Measured values as given in paper PMC12107553 (ACS chemical neuroscience, 2024).
Where two headings read alike, the source gives them in different places.

Legend:
[1] = molecular target: GSK-3β (Homo sapiens, UniProt P49841); assay: GSK-3β enzyme activity assay; assay type: biochemical; conditions: for GSK-3β inhibition, result in words: titration from 20 μM
[2] = molecular target: T1, HIV reverse transcriptase (RT) (Human immunodeficiency virus type 1 group M subtype B, UniProt P03366); conditions: read-out: HIV RT IC50; marked *, previously reported data ref 19; cited from earlier work
[3] = system: HIV, WT; conditions: read-out: HIV, WT EC50, cited from earlier work
[4] = molecular target: T1, HIV reverse transcriptase (RT); assay: NNRTI assay; assay type: biochemical

Sequence of GSK-3β (P49841 whole entry): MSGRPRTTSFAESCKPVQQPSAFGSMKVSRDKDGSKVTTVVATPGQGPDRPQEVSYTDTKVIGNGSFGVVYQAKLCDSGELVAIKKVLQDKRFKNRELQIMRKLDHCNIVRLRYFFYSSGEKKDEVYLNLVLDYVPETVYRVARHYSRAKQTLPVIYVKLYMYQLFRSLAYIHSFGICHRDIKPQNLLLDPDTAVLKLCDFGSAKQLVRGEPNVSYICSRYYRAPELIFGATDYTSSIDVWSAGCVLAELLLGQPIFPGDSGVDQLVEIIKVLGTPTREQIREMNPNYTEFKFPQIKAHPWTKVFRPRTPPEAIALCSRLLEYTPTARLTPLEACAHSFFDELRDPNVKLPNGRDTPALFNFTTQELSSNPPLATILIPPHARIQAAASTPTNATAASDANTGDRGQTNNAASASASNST

Cn1c(Cn2ccc(C(F)(F)F)c(Oc3cc(Cl)cc(C#N)c3)c2=O)n[nH]c1=O [Doravirine]
IC50 [1]: > 20000 nM | GSK-3β inhibition, result in words [1]: not inhibitors | IC50 [2]: 20.7 nM | EC50 ([3]; whole cell activity ref 22): 13 nM

O=C1Nc2ccc(Cl)cc2[C@@](C#CC2CC2)(C(F)(F)F)O1 [Efavirenz]
IC50 [1]: > 20000 nM | GSK-3β inhibition, result in words [1]: not inhibitors | EC50 ([3]; whole cell activity ref 21): 2 nM

Cc1cc(C#N)cc(C)c1Oc1nc(Nc2ccc(C#N)cc2)nc(N)c1Br [Etravirine]
IC50 [1]: 619 nM | EC50 ([3]; whole cell activity ref 21): 1 nM

Cc1ccnc2c1NC(=O)c1cccnc1N2C1CC1 [Nevirapine]
IC50 [1]: 1670 nM | EC50 ([3]; whole cell activity ref 21): 110 nM

Cc1cc(/C=C/C#N)cc(C)c1Nc1ccnc(Nc2ccc(C#N)cc2)n1 [Rilpivirine]
IC50 [1]: 502 nM | IC50 [4]: 160 nM | EC50 ([3]; whole cell activity ref 21): 0.67 nM
